The record followed here is ChEMBL document CHEMBL4261542, “Recent advances in combretastatin based derivatives and prodrugs as antimitotic agents” (Medchemcomm, 2017).

In one experiment the target is Tubulin. The experiment can be described thus: Inhibition of tubulin polymerization (unknown origin). It counts as protein-complex assay, Homo sapiens.
The test system of another experiment is DU-145. The experiment can be described thus: Antiproliferative activity against human DU145 cells after 48 hrs by MTT assay. It counts as functional, cell-based. The following applies: DU-145, 48 h. On the technique in general: Formazan colour is commonly taken as a measure of viable cells.
A short description of experiment [1]: Inhibition of [3H]colchicine binding to bovine brain tubulin after 20 mins by spectrophotometric analysis. More on the design: species or system Bos taurus.
The test system of another experiment is KB. The experiment can be described thus: Antiproliferative activity against human KB cells after 72 hrs by MTT assay. It is filed as functional, cell-based.
The test system of the next experiment is HT-1080. Put plainly: Antiproliferative activity against human HT1080 cells after 72 hrs by MTT assay. It is filed as functional, cell-based. The following applies: HT-1080, 72 h.
In the next experiment the test system is L929. Put plainly: Cytotoxicity against mouse L929 cells after 72 hrs by MTT assay. The following applies: L929, 72 h. It is filed as cell-based.
The test system of another experiment is SGC-7901. Put plainly: Antiproliferative activity against human SGC7901 cells after 72 hrs by MTT assay. The note with it: SGC-7901, 72 h. It is filed as functional, cell-based.
The subject of a further experiment is MCF7. The experiment can be described thus: Antiproliferative activity against human MCF7 cells. It counts as functional, cell-based.
The test system of another experiment is A549. Put plainly: Antiproliferative activity against human A549 cells. It is filed as functional, cell-based.

Each structure is given as a SMILES string.

What is called IC50 is the concentration that gives 50% inhibition. Read a low IC50 as greater potency in that assay. In turn, `CCOc1ccc(-c2cc(C)nn2-c2cc(OC)c(OC)c(OC)c2)cc1Cl` returned an IC50 against Tubulin of 1700 nM.

`COc1cc(/C=C(\c2cc(OC)c(OC)c(OC)c2)c2nnc(-c3cc(OC)c(OC)c(OC)c3)o2)ccc1O`: in the experiment on DU-145, inhibition was half-maximal at 100 nM (IC50).

Take `CCOc1ccc(-c2nccn2-c2cc(OC)c(OC)c(OC)c2)cc1Cl`: in experiment [1], the half-inhibitory concentration (IC50) was found to be 870 nM.

`COc1cc(-n2c(C)ccc2-c2cc(OC)c(OC)c(OC)c2)ccc1N`: the IC50 in the experiment with KB amounted to 45 nM; in the experiment on HT-1080, 70 nM; with L929, 30100 nM; in the experiment with SGC-7901 it was 390 nM.

Take `COc1cc(/C=C(\c2cc(OC)c(OC)c(OC)c2)c2nc3cc(OC)c(OC)cc3o2)ccc1O`: the 50% inhibitory concentration (IC50) in the experiment on MCF7 and in the experiment on A549 was less than 100 nM in each case.

In the case of `COc1ccc(N2C(=O)CSC2c2cc(OC)c(OC)c(OC)c2)cc1` (stereo not given), the midpoint of inhibition at Tubulin, the IC50, lay at 2120 nM.
